Measurements as given in US20220347299A1, “FLUORESCENT SYSTEMS FOR BIOLOGICAL IMAGING AND USES THEREOF” (LIGHTOX LIMITED, priority 2019, published 2022).

Columns and labels:
[1] = Peak absorption and fluorescence emission wavelengths in solvents; assay type: physicochemical; conditions: for λem(max)/nm: 100 nM, excitation at peak of absorption; for λabs(max)/nm: 10 μM
Procedure: Peak absorption and fluorescence emission wavelengths of compounds 6, 7, 12, 13, 14, 15, 19, 23, 27, 30 and 34 were measured in a variety of solvents, and the results are shown in Table 1. Absorption measurements were recorded at a concentration of 10 μM, and emission measurements were recorded at a concentration of 100 nM. Emission spectra were recorded with excitation at the peak of absorption (S0→S1).

HaCaT keratinocytes = test: Co-staining with organelle markers, co-localisation (PCC); assay type: cell-based; conditions: 1 μM compound, 30 minutes, BODIPY ER-Tracker Red
Procedure: To study the localisation of compounds in biological cells, co-staining of compounds of formula I with specific organelle markers (fluorescent dyes and antibodies) within biological cells was conducted. The following compounds were studied: compounds 6, 7, 12, 13, 14 and 15. HaCaT keratinocyte cell lines were used for the following experimental procedures. The cells were incubated in cell culture media (94% Dulbecco's Modified Eagle Medium (DMEM), 5% Foetal Bovine Serum (FBS) and 1% Penicillin Streptomycin solution (Pen-Strep). The cells were plated in 8-well plates, at a concentration of 25,000 cells per ml. 200 μl of cell suspension was added to each well, and the cells were incubated for 2 days before staining and imaging was carried out. In order to visualise the mitochondria, cells were probed with the mitochondrial dye MitoTracker® Deep Red. Cells to be stained were incubated with 200 μl MitoTracker® Deep Red solution (200 nM MitoTracker® and 1 μM Formula I compound in cell culture media) per well (N=3) for 30 minutes. Nile Red was used to identify lipids within the cells. 200 μl Nile Red Lipophilic dye (10 μg/ml Nile Red and 1 μM Formula I compound in cell culture media) was added to each well (N=3) and incubated for 30 minutes. For the detection of lysosomes within the cells, LysoTracker® Red DND-99 dye was used. 200 μl LysoTracker® Red DND-99 (50 nM LysoTracker® and 1 μM Formula I compound solution in cell culture media) was added to each well (N=3) and incubated for 30 minutes. For visualisation of the endoplasmic reticulum (ER), cells were stained with BODIPY® ER-Tracker® Red. 200 μl BODIPY ER-Tracker® Red (1 μM BODIPY® and 1 μM Formula I compound solution in cell culture media) was added to each well (N=3) and incubated for 30 minutes. Following incubation, the cell culture media containing dye was removed, and cells were washed twice with 200 μl phosphate buffered saline (PBS). After washing, 200 μl PBS was added into each well for imaging. For visualisation of the nuclear lamina, cells were probed with an anti-lamin A/C antibody. The cells were plated on 22×22 mm cover slips (10,000 cells/ml) and incubated for 2 days before staining. The cells were washed with PBS to remove excess media before staining. The cells were fixed with 4% paraformaldehyde (PFA) for 10 minutes at room temperature, before being washed twice in PBS for 5 minutes. Following washing, the cells were permeabilised in 0.4% Triton X-100 in PBS for 10 minutes. The cells were subsequently washed three times in PBS for 5 minutes, before being incubated in blocking buffer (1% BSA, 0.1% fish gelatine and 0.1% Triton X-100 in PBS) for 15 minutes at room temperature. The cells were incubated in primary antibody (mouse anti-lamin A/C IgG in blocking buffer) for 1 hour at room temperature. The cells were then washed twice in blocking buffer and incubated in secondary antibody (anti-mouse Alexa-594 IgG in blocking buffer) for 30 minutes at room temperature. Cells were washed twice in PBS for 10 minutes at room temperature. For cell staining with compounds of formula I, 5 μM of the compound of formula I in PBS was added to the cells for 30 minutes at room temperature. Cells were then washed five times for 5 minutes in PBS. Following washing, the cells were mounted onto non-charged microscopy slides using 6 μl Mowiol® per cover slip as mounting media. A Zeiss 880 confocal microscope was used for all the imaging work. [table] Image) Coloc2 software was used to calculate co-localization statistics between the compounds of formula I and the organelle marker images. The background was subtracted from each image and a region of interest (ROI) was used to target the analysis. The point spread function (PSF) of each image was calculated as 2.0 and Coastes' iterations was set to 100. The statistic quantified was the Pearson's Correlation Coefficient (PCC). PCC gives a number ranging from +1 to −1:1=perfect co-localisation; 0=no relationship; and, −1=perfect anti-co-localisation. […]

S. epidermidis [2] = test: Overnight growth curve (OD 600 nm) cytotoxicity assay, S. epidermidis; assay type: cell-based, Staphylococcus epidermis
Procedure: A sample of S. epidermidis was taken from a plate culture and inoculated into Luria Broth to culture overnight at 30° C. for approximately 16 hours.
Samples were incubated in darkness at room temperature for approximately 2 hrs. A black clear bottom Costar™-96 well plate was then filled, with 200 μl of sample in each well Cells were irradiated for 5 minutes at approximately 15 mW/cm^2. The cytotoxicity of the compounds without irradiation was also assessed.
The 96 well plate was put into the plate reader and set up to run a growth curve protocol using the following parameters: • Incubation temperature: 37° C. • OD read wavelength 600 nm • 250 cycles, readings every 5 rains • Shaking for 5 s pre-reading
This was left to run overnight to obtain kinetic growth curves based on optical density readings.

Bacillus subtilis = test: Overnight growth curve (OD 600 nm) cytotoxicity assay, B. subtilis; assay type: cell-based
Procedure: A sample of B. subtilis was taken from a plate culture and inoculated into Luria Broth to culture overnight at 37° C. for approximately 16 hours. [table] Samples were incubated in darkness at room temperature for approximately 2 hrs. A black clear bottom Costar™-96 well plate was then filled, with 200 μl of sample in each well Cells were irradiated for 5 minutes at approximately 15 mW/cm^2. The cytotoxicity of the compounds without irradiation was also assessed. The 96 well plate was put into the plate reader and set up to run a growth curve protocol using the following parameters: • Incubation temperature: 37° C. • OD read wavelength 600 nm • 250 cycles, readings every 5 rains • Shaking for 5 s pre-reading This was left to run overnight to obtain kinetic growth curves based on optical density readings.

S. epidermidis [3] = test: Baclight staining (propidium iodide / Syto 9), widefield imaging, S. epidermidis; assay type: cell-based, Staphylococcus epidermis; conditions: 1 μM
Procedure: Samples prepared according to Table 9 were treated with compounds by diluting 10 mM of stock solution in media to make a 100 μM concentration. This solution was then further diluted 1:10 and 1:100 in media to make 10 μM and 1 μM media solutions containing the compound. 50 μl of cell culture were then added to the 100 μM, 10 μM and 1 μM compound-containing media preparations. Following the treatment outlined in Table 9, each of the three bacterial strains were stained using a Baclight™ staining kit containing separate solutions of Syto™ 9 and Propidium Iodide. One extra sample treated with 0.1 μM of each compound was also included in this assay. M. smegmatis, S. epidermis and B. subtilis were stained with propidium iodide to show non-viable cells and with Syto 9 to show all cells. The following staining procedure was used: • 1. 1 ml of each sample was eluted into a well of a 12-well plate; • 2. One half of the 12 well plate was irradiated at approximately 15 mW/cm^2 for 5 mins; • 3. The content of each well was eluted into separate Eppendorfs and centrifuged at 10,000 r.p.m for 3 rains to form a culture pellet; • 4. Media was then removed, and each pellet resuspended in 200 μl of 1× PBS before being centrifuged at 10,000 r.p.m. for 3 mins. • 5. A preparation of Baclight™-staining solution was made using 1 ml 1× PBS, 3 μl propidium iodide and 3 μl Syto™ 9; • 6. […]

In the case of CC(C)(C)OC(=O)/C=C/c1ccc(C#Cc2ccc(N3CCNCC3)cc2)cc1 [Compound 6, tert-butyl (2E)-3-(4-{2-[4-(piperazin-1-yl)phenyl]ethynyl}phenyl)prop-2-enoate], the “λem(max)/nm” value ([1]; DCM) is reported as 550 nm, the “λabs(max)/nm” value ([1]; DCM) is reported as 368 nm and the “λem(max)/nm” value ([1]; Toluene) is reported as 482 nm. The “λabs(max)/nm” value ([1]; Toluene) was 358 nm, the “average PCC Value with BODIPY ER-Tracker” value (HaCaT keratinocytes) was 0.48 and the “lag phase of growth of S. epidermidis, photoactivated” value (S. epidermidis [2]; 1 μM, 405 nm, 5 min, approximately 15 mW/cm^2, untreated lag around 2 hrs) was “around 15 hrs”. For the same compound, the “growth of S. epidermidis, non-photoactivated” value (S. epidermidis [2]; 1 μM, not irradiated) was “minor impact on growth by extended lag phase”, the “growth of S. epidermidis” value (S. epidermidis [2]; 100 and 10μ concentrations, with or without photoactivation) was “no growth is evident regardless of any photoactivation” and the “growth of B. subtilis” value (Bacillus subtilis; 10 μM, effect much more significant in the radiated sample) was “growth is reduced and lag time extended”. The “growth of B. subtilis, radiated” value (Bacillus subtilis; 5 and 1 μM, 405 nm, 5 min) was “some growth inhibition” and the “non-viable (red, propidium iodide) cells compared with untreated controls” value (S. epidermidis [3]) was “increase in red fluorescent cells”.
